This experiment addresses T1, Thymidine kinase, cytosolic (Homo sapiens, UniProt P04183).
T1 sequence (P04183 whole entry): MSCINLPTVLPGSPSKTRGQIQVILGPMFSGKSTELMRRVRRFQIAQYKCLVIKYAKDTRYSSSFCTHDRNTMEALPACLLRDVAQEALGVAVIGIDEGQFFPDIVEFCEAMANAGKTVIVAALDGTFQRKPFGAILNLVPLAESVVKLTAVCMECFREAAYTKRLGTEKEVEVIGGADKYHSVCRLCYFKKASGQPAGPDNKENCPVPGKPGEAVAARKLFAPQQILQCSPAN
The experiment can be described thus: Inhibitory concentration on phosphorylation of [methyl-3H]-dTh by human Thymidine Kinase 1.

The compound `Cc1cn(C/C=C\CN(Cc2ccccc2)Cc2ccccc2)c(=O)[nH]c1=O` came in with an IC50 greater than 500 µM.

The term IC50 denotes the concentration at which inhibition is half-maximal.

The values are drawn from ChEMBL document CHEMBL1144975, “Improving the selectivity of acyclic nucleoside analogues as inhibitors of human mitochondrial thymidine kinase: replacement of a triphenylmethoxy moiety with substituted amines and carboxamides” (Bioorg Med Chem Lett, 2003).
